The subject of data set [1] is sGC. Description: cGMP neuronal cell-based assay. The conditions noted are these: rat primary hippocampal neurons; 30 μM DETA-NO; 50% of high control (10 μM Compound Y); read-out: sGC-neuron Abs EC50. As for the experimental part:
Rat primary neurons were isolated from fetuses of 18-day pregnant Sprague-Dawley females. The fetuses were collected in Hanks' balanced salt solution (HBSS) and brains were rapidly removed. The cerebral hippocampi were isolated and mechanically fragmented. Further tissue digestion was performed with 0.25% (wt/vol) trypsin solution in HBSS without Ca2+ and Mg2+ for 15 min at 37° C. After trypsination, cells were washed and resuspended in neurobasal medium supplemented with 0.5 mM L-glutamine, 12.5 uM glutamic acid, 2% B-27 and 100 U/mL penicillin, and 100 μg/mL streptomycin. Cells were plated at a density of 4×10^4 cells/well in a poly-D-lysine coated 384-well flat clear-bottom plate (Corning Cat No 354662). Cells were incubated 6-7 days at 37° C. in a humidified chamber with 5% CO2. Media was removed and cells were washed 1× with HBSS containing Ca2+ and Mg2+, and replaced with 40 uL HBSS containing 0.5 mM IBMX, and incubated for 15 minutes at 37° C. 10 uL of a 5× stock of test compounds with diethylenetriamine NONOate (DETA-NO) was added. Final concentration of DETA-NO was 30 μM. Cells were incubated for 20 min at 37° C. Medium was removed, 50 uL of ice-cold 10% acetic acid was added, and incubated for 60 minutes at 4° C. Following centrifugation at 4° C. for 5 minutes at 1000×g to pellet cell debris, the supernatant was aspirated to a clean plate and the samples were analyzed for cGMP content. cGMP concentrations were determined from each sample using LC-MS/MS.
Data were normalized to a high control using the following equation: 100*(Sample−Low Control)/(High Control−Low Control), where the low control is the average of 15 samples treated with 1% DMSO, and the high control is the average of 15 samples treated with 10 μM of the known sGC stimulator Compound Y (depicted in Example 2). Data were fit using a 4-parameter fit (log(agonist) vs. response—variable slope) using GraphPad Prism Software v.5. n=2 for all compounds. […]

Data set [2] can be described thus: Rat cerebrospinal fluid (CSF) pharmacokinetic properties. The conditions noted are these: male, Sprague-Dawley; for concentration at 1 h: CSF, PO 10 mg/kg in PEG400, 1 h post-dosing, read-out: CSF Conc (nM @ 1 h); for Kp uu at 1 h: PO 10 mg/kg, unbound CSF / unbound plasma. It counts as in vivo. As for the experimental part:
PK in rats was determined following oral dosing. For the oral (PO) experiments, a group of 6 male Sprague-Dawley rats with an indwelling catheter placed in the cisterna magna were used. The PO group was dosed with 3 or 10 mg/kg of a compound formulated as a solution in PEG400. PO doses were administered by oral gavage and delivered to the stomach using a syringe and gavage tube. Following oral dosage administration, the gavage tube was flushed with approximately 0.5 mL of water to ensure complete delivery of the full dose.
Plasma and CSF samples were collected as follows: samples of CSF and blood were collected at 1 hour and 2 hours post-dosing. CSF samples (0.05 mL) were collected through the intracisternal catheter. Blood samples (0.25 mL) were collected through retro-orbital sampling. These samples were kept on ice until processed for plasma. Blood samples were centrifuged at 3200 rpm for 5 minutes at approximately 5° C. within 1 hour of collection. Plasma was directly transferred to a 96-well plate tube (0.125 mL). Plug caps were placed on the tubes and the tubes frozen at approximately −70° C. and stored until analysis.
Plasma was collected and analyzed for the presence of compound.
The compound in question and the internal standard were extracted from plasma and CSF by precipitation. Samples were analyzed using liquid chromatography (LC) with tandem mass spectrometric detection (MS/MS) using electrospray ionization. The standard curve range was from 1 to 1000 ng/mL.
Kp,uu is defined as the concentration ratio of unbound drug in CSF to unbound drug in plasma. Unbound drug in plasma (or free plasma concentration) is calculated by multiplying the total plasma concentration by the unbound fraction as determined by plasma protein binding. The CSF concentration is then divided by the free plasma concentration to determine the Kp,uu. (See e.g., Di et al., J. Med. Chem., 56, 2-12 (2013)).

Data set [3] concerns rats. The data set can be described thus: Kaolin - gait score. It counts as in vivo, rat. The conditions noted are these: internal reference Indomethacin 10 mg/kg p.o. As for the experimental part:
Kaolin. Induction: In rats, unilateral arthritis was induced by an intra-articular injection of a 10% kaolin suspension into the knee joint of the right hind paw under gas anesthesia (3.5% isoflurane/3 L/min). Gait score: The gait score will be evaluated 3 h 30 min after kaolin administration by:
2: intermittent raising of the paw
(§1) Testing: 120 minutes after treatment. N=4/model/test. Results are expressed for each group as a percentage of activity calculated from the mean value of the vehicle-treated animals and compared to naïve animals, control paw, or cut-off value, depending on the test.

The test system of data set [4] is rats. Description: Carrageenan - paw pressure test. The settings on record: internal reference Indomethacin 30 mg/kg p.o. The format is in vivo, rat. Here is the method:
(§2) Paw Pressure Test. Static mechanical hyperalgesia is measured. This test requires the application of an increasing pressure on the hind paws between a flat surface and a blunt pointer. To evaluate the analgesic action of a compound, one hind paw of the animal was inflamed by an injection or injured by ligation, while the other hind paw was not injured or inflamed. The apparatus exerted a steadily increasing force on the hind paws. The reaction threshold was determined as the pressure (g) required to elicit paw withdrawal and/or vocalization. The animals were gently handled by the experimenter and static mechanical hyperalgesia were assessed two times for both hind paws.
Carrageenan. Induction: Three hours before assessment of the nociceptive threshold using the paw pressure test 100 μL of a 2% carrageenan suspension was injected into the plantar aspect of the right hind paw. The Paw Pressure test was then conducted as described above.
as §1

The test system of data set [5] is male Long Evans rats. The data set can be described thus: Novel Object Recognition (NOR) test, MK-801-induced memory deficit. It counts as in vivo, rat.
Data set [6] concerns Healthy rats. Description: Healthy rats - paw pressure test. The format is in vivo, rat. The conditions noted are these: internal reference Morphine 4 mg/kg s.c. As for the experimental part: as §2, §1
Data set [7] concerns rats. Description: Bennett model - paw pressure test. It counts as in vivo, rat. The settings on record: internal reference Morphine 3 mg/kg s.c. As for the experimental part:
as §2
Bennett Model. Peripheral mononeuropathy was induced by loose ligation of the sciatic nerve in anesthetized rats (Xylazine 10 mg/kg i.p., ketamine 60 mg/kg i.p.) on D−14. Briefly, the common sciatic nerve was exposed at the level of the middle of the thigh by blunt dissection through the biceps femoris. Proximal to the sciatic trifurcation, four ligatures were loosely tied around it with about 1-mm spacing. […]
Testing: 120 minutes after treatment. […] Results are expressed for each group as a percentage of activity calculated from the mean value of the vehicle-treated animals and compared to naïve animals, control paw, or cut-off value, depending on the test.

The test system of data set [8] is rats. The data set can be described thus: Formalin test - score. The format is in vivo, rat. The conditions noted are these: internal reference Morphine 4 mg/kg s.c. Here is the method:
Formalin Test. 2.5% formalin solution was injected by subplantar route into the right hind paw. Scoring of pain behavior was performed in rats for 36 minutes every 3 minutes according to the following scores:
0=normal behavior of the injected hind limb to support the body
1=slight touching of the injected paw on the floor to lightly support or not support the body
2=total withdrawal of the injected paw
3=licking, biting or shaking of the injected paw.
as §1

Data set [9] concerns rats. The data set can be described thus: Brennan model - electronic Von Frey test. It counts as in vivo, rat. The settings on record: internal reference Morphine 4 mg/kg s.c.
Description: Brennan Model. Surgery: Surgery was done under gas anesthesia (2.5% isoflurane/3 L/min). For all rats, the plantar aspect of the left hind paw was exposed and a 1 cm longitudinal incision was made using a surgical blade, through the skin and fascia of the plantar aspect of the foot, starting 0.5 cm from the proximal edge of the heel and extending toward the toes. The plantaris muscle was elevated and incised longitudinally whereas the insertions remained intact. After hemostasis with gentle pressure, the skin was stitched up with two sutures. After surgery, animals recovered in their cages.
Electronic Von Frey Test. Tactile allodynia was assessed using the electronic Von Frey test 24 h after surgery. The test requires the application of an increasing pressure onto the plantar aspect of the hind paws. The apparatus exerted a steady force on the hind paws. Reaction thresholds were determined as the pressure (g) required to elicit paw withdrawal. Each reaction threshold measurement was repeated three times for both hind paws with intervals of approximately 2 to 3 mins.
as §1

Data set [10] concerns Healthy rats. The data set can be described thus: Healthy rats - tail flick test. The format is in vivo, rat. The settings on record: internal reference Morphine 4 mg/kg s.c. As for the experimental part: Tail Flick Test. A radiant heat was applied on the tail. When the rat felt discomfort, it reacted by a sudden tail movement (tail flick) which automatically stopped the stimulation and the timer for the measurement by the animal reaction time or nociceptive reaction latency (period from the beginning of the stimulation until detection of the response of the animal). A cut-off was previously fixed at 10 sec in order to prevent tissue damage.
as §1
In general terms: Thermal pain tests record how soon the animal reacts.

Seven compounds from patent US11690828B2, “Treatment of CNS diseases with sGC stimulators” (Cyclerion Therapeutics, Inc., priority 2016, dated 2023) can be followed below.

A value given as a limit tells only on which side of the number the result lay.

In the case of `Fc1ccccc1Cc1nc(-c2nc(C(F)(F)F)n[nH]2)n2ccccc12` [Compound I-3], the EC50 in [1] was at most 100 nM.
Consider `Fc1ccccc1Cc1nc(-c2nc(C(F)(F)F)n[nH]2)c2cccnn12` [Compound I-6], for which, in data set [2], the concentration at 1 h stood at 0.78 nM and the Kp uu at 1 h was under 0.01.
The like results for `Cc1ncc(Cc2nc(-c3nc(C(F)(F)F)n[nH]3)n3ccccc23)cn1` [Compound I-4] were, in that order, 180 nM and 0.96.
With `COc1ccc2c(c1)c(CC(=O)O)c(C)n2C(=O)c1ccc(Cl)cc1` [Indomethacin, reference compound], the “% of activity vs. vehicle, kaolin gait score” value in [3] turned out to be 58%. Besides, in [4], the “% of activity vs. vehicle, carrageenan paw pressure test” value was found to be 100%.
Take `C[C@]12N[C@H](Cc3ccccc31)c1ccccc12` [MK-801, MK-801 (Dizocilpine), reference compound]: in [5] (MK-801 0.1 mg/kg), the “Effect on recognition memory, 0-3 minute time range” value was “strong memory deficit” and the “Effect on recognition memory, 0-5 minute time range” value is “strong memory deficit”. Further, the “Recognition Index, Mean (0 to 3 minute time bin)” value in [5] (Vehicle + MK-801 0.1 mg/kg IP, Vehicle + Saline control 73.78) is listed as 56.92%.
As to `COc1ccc2c3c1O[C@H]1C[C@@H](O)C=C[C@@]31CCN(C)C2` [Galantamine, reference compound], in data set [5] (Galantamine 1 mg/kg IP + MK-801 0.1 mg/kg IP), the “Recognition Index, Mean (0 to 3 minute time bin)” value amounted to 73.33%.
With `CN1CC[C@]23c4c5ccc(O)c4O[C@H]2[C@@H](O)C=C[C@H]3[C@H]1C5` [Morphine, reference compound], in data set [6], the “% of activity vs. vehicle, healthy rats paw pressure test” value came out at 69%. Moreover, in data set [7], the “% of activity vs. vehicle, Bennett model paw pressure test” value was determined as 191%. Moreover, in data set [8], the “% of activity vs. vehicle, formalin test score (early phase)” value was determined as 57% and the “% of activity vs. vehicle, formalin test score (late phase)” value is on record as 38%. Moreover, the “% of activity vs. vehicle, Brennan model electronic Von Frey test” value in data set [9] amounted to 88%. Also, in data set [10], the “% of activity vs. vehicle, healthy rats tail flick test” value was found to be 66%.

For orientation: EC50 means the concentration giving half of the maximal effect.
